Data taken from patent US7825114B2, “Substituted aminopyrazolopyridines and salts thereof, pharmaceutical compositions comprising same, methods of preparing same and uses of same” (Bayer Schering Pharma AG, priority 2006, dated 2010).

Legend:
Tie2 [1] = target: T1, Tie2 (Homo sapiens, UniProt Q02763); assay: Tie2 ELISA assay (assay 1): cellular Tie2 autophosphorylation; type: cell-based; set-up: expressed in transfected cells; host or cells: CHO (DHFR-deficient), stably transfected; details: CHO cells stably transfected with Tie2, stimulated by angiopoietin-2; Tie2 autophosphorylation by sandwich-ELISA; read-out: Tie 2 activity (assay 1)
Description: Assay 1: Tie2 ELISA Assay
Cellular activity of compounds of the present invention as inhibitors of Tie2 kinase activity was measured employing a Tie2 ELISA assay as described in the following paragraphs. Herein CHO cell-cultures, which are stably transfected by known techniques with Tie2 using DHFR deficiency as selection marker, are stimulated by angiopoietin-2. The specific autophosphorylation of Tie2 receptors is quantified with a sandwich-ELISA using anti-Tie2 antibodies for catch and anti-phosphotyrosine antibodies coupled to HRP for detection. […]
Target sequence in this assay (Q02763 23-1124): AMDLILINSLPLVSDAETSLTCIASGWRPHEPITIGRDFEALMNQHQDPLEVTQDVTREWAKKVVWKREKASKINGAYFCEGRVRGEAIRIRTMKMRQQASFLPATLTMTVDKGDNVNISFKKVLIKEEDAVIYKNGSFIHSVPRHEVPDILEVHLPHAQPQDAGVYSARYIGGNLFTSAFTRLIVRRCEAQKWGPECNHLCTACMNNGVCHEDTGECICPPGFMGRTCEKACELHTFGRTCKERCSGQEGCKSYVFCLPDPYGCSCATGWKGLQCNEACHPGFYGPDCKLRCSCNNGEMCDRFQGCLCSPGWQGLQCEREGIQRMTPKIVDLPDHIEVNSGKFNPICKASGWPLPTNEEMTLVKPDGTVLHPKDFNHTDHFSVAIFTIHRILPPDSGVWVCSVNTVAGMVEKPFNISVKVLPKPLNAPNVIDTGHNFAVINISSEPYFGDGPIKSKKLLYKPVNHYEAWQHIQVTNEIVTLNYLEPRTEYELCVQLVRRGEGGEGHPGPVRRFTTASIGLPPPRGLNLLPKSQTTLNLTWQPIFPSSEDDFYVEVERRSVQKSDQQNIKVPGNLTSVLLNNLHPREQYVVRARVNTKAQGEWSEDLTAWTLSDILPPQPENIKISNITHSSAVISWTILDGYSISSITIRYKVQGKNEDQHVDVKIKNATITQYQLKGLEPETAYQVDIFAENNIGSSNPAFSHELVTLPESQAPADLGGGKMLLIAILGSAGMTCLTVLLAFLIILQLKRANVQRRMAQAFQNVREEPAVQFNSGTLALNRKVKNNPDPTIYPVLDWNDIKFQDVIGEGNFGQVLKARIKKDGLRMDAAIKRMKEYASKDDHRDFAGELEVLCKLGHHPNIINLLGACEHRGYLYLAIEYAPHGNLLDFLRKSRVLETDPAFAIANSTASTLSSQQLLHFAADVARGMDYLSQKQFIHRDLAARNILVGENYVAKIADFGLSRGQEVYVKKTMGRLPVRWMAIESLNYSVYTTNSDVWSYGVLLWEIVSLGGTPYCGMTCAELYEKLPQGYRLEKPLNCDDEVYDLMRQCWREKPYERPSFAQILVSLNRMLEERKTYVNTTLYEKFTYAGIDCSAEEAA

Tie2 [2] = target: T1, Tie2; assay: Tie-2-Kinase HTRF-Assay without kinase preactivation (assay 2); type: biochemical; set-up: A recombinant fusion protein of GST and the intracellular domains of Tie-2; GST; made in house; host or cells: insect cells (Hi-5); details: GST-Tie-2 intracellular domains, no preactivation, 10 μM ATP
Source text: Assay 2: Tie-2-Kinase HTRF-Assay without Kinase Preactivation
Tie2-inhibitory activity of compounds of the present invention was quantified employing two Tie2 HTRF assay as described in the following paragraphs.
A recombinant fusion protein of GST and the intracellular domains of Tie-2, expressed in insect cells (Hi-5) and purified by Glutathion-Sepharose affinity chromatography was used as kinase. Alternatively, commercially available GST-Tie2-fusion protein (Upstate Biotechnology, Dundee, Scotland) can be used As substrate for the kinase reaction the biotinylated peptide biotin-Ahx-[…] (C-terminus in amid form) was used which can be purchased e.g. from the company Biosynthan GmbH (Berlin-Buch, Germany). Detection of phosphorylated product is achieved specifically by a trimeric detection complex consisting of the phosphorylated substrate, streptavidin-XLent (SA-XLent) which binds to biotin, and Europium Cryptate-labeled anti-phosphotyrosine antibody PT66 which binds to phosphorylated tyrosine.
The reaction was stopped by the addition of 5 μl of an aqueous buffer (25 mM Hepes/NaOH pH 7.5, 0.28% (w/v) bovine serum albumin) containing EDTA (90 mM) and the HTRF (Homogeneous Time Resolved Fluorescence) detection reagents streptavidine-XLent (0.2 μM, from Cis Biointernational, Marcoule, France) and PT66-Eu-Chelate (0.3 ng/μl; a europium-chelate labelled anti-phospho-tyrosine antibody from Perkin Elmer).
(§1) The resulting mixture was incubated 1 h at 22° C. to allow the binding of the biotinylated phosphorylated peptide to the streptavidine-XLent and the PT66-Eu-Chelate. Subsequently the amount of phosphorylated substrate peptide was evaluated by measurement of the resonance energy transfer from the PT66-Eu-Chelate to the streptavidine-XLent. Therefore, the fluorescence emissions at 620 nm and 665 nm after excitation at 350 nm was measured in a HTRF reader, e.g. a Rubystar (BMG Labtechnologies, Offenburg, Germany) or a Viewlux (Perkin-Elmer). The ratio of the emissions at 665 nm and at […] was taken as the measure for the amount of phosphorylated substrate peptide.
Target sequence in this assay (Q02763 770-1124 limits assumed): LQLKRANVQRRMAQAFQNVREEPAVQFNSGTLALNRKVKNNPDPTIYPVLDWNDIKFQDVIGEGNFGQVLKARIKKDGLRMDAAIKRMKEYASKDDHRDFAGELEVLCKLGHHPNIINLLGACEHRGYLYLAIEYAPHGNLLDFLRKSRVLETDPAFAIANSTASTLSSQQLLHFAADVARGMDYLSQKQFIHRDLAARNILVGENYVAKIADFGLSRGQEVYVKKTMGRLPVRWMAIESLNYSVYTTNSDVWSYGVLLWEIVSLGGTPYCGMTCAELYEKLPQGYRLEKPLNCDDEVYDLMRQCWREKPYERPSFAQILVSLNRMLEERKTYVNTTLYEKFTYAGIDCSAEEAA

human c-kit = target: T2, human c-kit (Homo sapiens, UniProt P10721); assay: cKIT-Kinase HTRF-Assay (assay 4); type: biochemical; details: for IC50: GST-tagged kinase domain of human c-kit, 10 μM ATP; for Selectivity vs. cKit: IC50 assay 4/IC50 assay 2
T2 construct: GST-tagged recombinant kinase domain of the human c-kit; GST; host or cells: SF-9 insect cells
Description: Assay 4: cKIT-Kinase HTRF-Assay
c-Kit-inhibitory activity of compounds of the present invention was quantified employing the c-kit HTRF assay as described in the following paragraphs. GST-tagged recombinant kinase domain of the human c-kit expressed in SF-9 cells was used as kinase. As substrate for the kinase reaction biotinylated poly-(Glu,Tyr) (Cis biointernational, France) was used.
c-Kit was incubated for 30 min at 22° C. in the presence of different concentrations of test compounds in 5 μl assay buffer [50 mM Hepes/NaOH pH 7.0, 1 mM MgCl2, 5 mM MnCl2, 1.0 mM dithiothreitol, 0.1 mM sodium ortho-vanadate, 10 μM adenosine-tri-phosphate (ATP), 1.3 μg/ml substrate, 0.001% (v/v) Nonidet-P40 (Sigma), 1% (v/v) dimethylsulfoxide]. The concentration of c-kit was adjusted depending of the activity of the enzyme lot and was chosen appropriate to have the assay in the linear range. The reaction was stopped by the addition of 5 μl of a solution of HTRF detection reagents (0.1 μM streptavidine-XLent and 1 nM PT66-Eu-Chelate, an europium-chelate labelled anti-phospho-tyrosine antibody from Perkin Elmer) in an aqueous EDTA-solution (80 mM EDTA, 0.2% (w/v) bovine serum albumin in 50 mM HEPES/NaOH pH 7.0).
as §1, with “substrate” for “substrate peptide”, “substrate.” for “substrate peptide.”

T2 sequence (P10721 589-937 limits assumed): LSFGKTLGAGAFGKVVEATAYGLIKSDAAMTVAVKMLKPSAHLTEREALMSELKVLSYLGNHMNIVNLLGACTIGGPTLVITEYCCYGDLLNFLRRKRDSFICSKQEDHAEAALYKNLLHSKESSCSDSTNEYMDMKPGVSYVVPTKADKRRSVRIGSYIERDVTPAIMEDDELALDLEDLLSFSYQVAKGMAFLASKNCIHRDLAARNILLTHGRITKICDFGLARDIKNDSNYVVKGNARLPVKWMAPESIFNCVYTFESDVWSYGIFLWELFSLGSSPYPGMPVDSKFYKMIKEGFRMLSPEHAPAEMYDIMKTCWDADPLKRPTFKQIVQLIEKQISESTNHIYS

| IC50 (Tie2 [1]) | IC50 (Tie2 [2]) | IC50 (human c-kit) | Selectivity vs. cKit (human c-kit) | SMILES |
| --- | --- | --- | --- | --- |
| ≤ 100 nM | ≤ 100 nM | ≤ 100 nM | 0.67 | Nc1n[nH]c2nccc(-c3ccc(NC(=O)Nc4cccc(C(F)(F)F)c4)cc3)c12 [PA2, 1-[4-(3-Amino-1H-pyrazolo[3,4-b]pyridin-4-yl)-phenyl]-3-(3-trifluoromethyl-phenyl)-urea, reference compound] |
| ≤ 100 nM | ≤ 100 nM | 100 to 1000 nM | 6 | Cn1nc(N)c2c(-c3ccc(NC(=O)Nc4cccc(C(F)(F)F)c4)cc3)cc(C3(C(N)=O)CC3)nc21 [Example 2.1, 1-(3-Amino-1-methyl-4-{4-[3-(3-trifluoromethyl-phenyl)-ureido]-phenyl}-1H-pyrazolo[3,4-b]pyridin-6-yl)-cyclopropanecarboxylic acid amide] |
| ≤ 100 nM | ≤ 100 nM | 1000 to 10000 nM | 20 | Cn1nc(N)c2c(-c3ccc(NC(=O)Nc4cccc(C(F)(F)F)c4)cc3)cc(C3CCC3)nc21 [Example 6.1, 1-[4-(3-Amino-6-cyclobutyl-1-methyl-1H-pyrazolo[3,4-b]pyridin-4-yl)-phenyl]-3-(3-trifluoromethyl-phenyl)-urea] |
|  | ≤ 100 nM | 1000 to 10000 nM | 19 | CN(C)C(=O)C[C@@H]1C[C@H](c2cc(-c3ccc(NC(=O)Nc4cccc(C(F)(F)F)c4)cc3)c3c(N)nn(C)c3n2)C1(C)C [Example 8.4, 2-[3-(3-Amino-1-methyl-4-{4-[3-(3-trifluoromethyl-phenyl)-ureido]-phenyl}-1H-pyrazolo[3,4-b]pyridin-6-yl)-2,2-dimethyl-cyclobutyl]-N,N-dimethyl-acetamide] |

The next lines start with the compound.

| SMILES | IC50 (Tie2 [1]) | IC50 (Tie2 [2]) | IC50 (human c-kit) | Selectivity vs. cKit (human c-kit) |
| --- | --- | --- | --- | --- |
| CCOC(=O)C1(c2cc(-c3ccc(NC(=O)Nc4ccccc4)cc3)c3c(N)nn(C)c3n2)CC1 [Example 1.1, 1-{3-Amino-1-methyl-4-[4-(3-phenyl-ureido)-phenyl]-1H-pyra-zolo[3,4-b]pyridin-6-yl}-cyclopropanecarboxylic acid ethyl ester] | 100 to 1000 nM | 100 to 1000 nM | 1000 to 10000 nM | 4 |
| Cn1nc(N)c2c(-c3ccc(NC(=O)Nc4cccc(C(F)(F)F)c4)cc3)cc(C3(C(=O)Nc4ccccc4)CC3)nc21 [Example 1.7, 1-(3-Amino-1-methyl-4-{4-[3-(3-trifluoromethyl-phenyl)-ureido]-phenyl}-1H-pyrazolo[3,4-b]pyridin-6-yl)-cyclopropanecarboxylic acid phenylamide] | 100 to 1000 nM | 100 to 1000 nM | 1000 to 10000 nM | 7 |
| CN(C)C(=O)C1(c2cc(-c3ccc(NC(=O)Nc4cccc(C(F)(F)F)c4)cc3)c3c(N)nn(C)c3n2)CC1 [Example 1.10, 1-(3-Amino-1-methyl-4-{4-[3-(3-trifluoromethyl-phenyl)-ureido]-phenyl}-1H-pyrazolo[3,4-b]pyridin-6-yl)-cyclopropanecarboxylic acid dimethylamide] | ≤ 100 nM | ≤ 100 nM | 1000 to 10000 nM | 12 |
| CCOC(=O)C1(c2cc(-c3ccc(NC(=O)Nc4cccc(C(F)(F)F)c4)cc3)c3c(N)nn(C)c3n2)CC1 [Example 1.2, 1-(3-Amino-1-methyl-4-{4-[3-(3-trifluoromethyl-phenyl)-ureido]-phenyl}-1H-pyrazolo[3,4-b]pyridin-6-yl)-cyclopropanecarboxylic acid ethyl ester] | ≤ 100 nM | ≤ 100 nM | 1000 to 10000 nM | >30 |
| CCNC(=O)C1(c2cc(-c3ccc(NC(=O)Nc4cccc(C(F)(F)F)c4)cc3)c3c(N)nn(C)c3n2)CC1 [Example 1.5, 1-(3-Amino-1-methyl-4-{4-[3-(3-trifluoromethyl-phenyl)-ureido]-phenyl}-1H-pyrazolo[3,4-b]pyridin-6-yl)-cyclopropanecarboxylic acid ethylamide] | 100 to 1000 nM | ≤ 100 nM | 1000 to 10000 nM | >100 |
| Cn1nc(N)c2c(-c3ccc(NC(=O)Nc4cccc(C(F)(F)F)c4)cc3)cc(C3(C(=O)NCCN4CCOCC4)CC3)nc21 [Example 1.8, 1-(3-Amino-1-methyl-4-{4-[3-(3-trifluoromethyl-phenyl)-ureido]-phenyl}-1H-pyrazolo[3,4-b]pyridin-6-yl)-cyclopropanecarboxylic acid (2-morpholin-4-yl-ethyl)-amide] | ≤ 100 nM | 100 to 1000 nM | 1000 to 10000 nM | 15 |
| CN(C)CCNC(=O)C1(c2cc(-c3ccc(NC(=O)Nc4cccc(C(F)(F)F)c4)cc3)c3c(N)nn(C)c3n2)CC1 [Example 1.9, 1-(3-Amino-1-methyl-4-{4-[3-(3-trifluoromethyl-phenyl)-ureido]-phenyl}-1H-pyrazolo[3,4-b]pyridin-6-yl)-cyclopropanecarboxylic acid (2-dimethylamino-ethyl)-amide] | 100 to 1000 nM | ≤ 100 nM | 100 to 1000 nM | 10 |
| CNC(=O)C1(c2cc(-c3ccc(NC(=O)Nc4cccc(C(F)(F)F)c4)cc3)c3c(N)nn(C)c3n2)CC1 [Example 1.4, 1-(3-Amino-1-methyl-4-{4-[3-(3-trifluoromethyl-phenyl)-ureido]-phenyl}-1H-pyrazolo[3,4-b]pyridin-6-yl)-cyclopropanecarboxylic acid methylamide] | 100 to 1000 nM | ≤ 100 nM | 100 to 1000 nM | 9 |
| Cn1nc(N)c2c(-c3ccc(NC(=O)Nc4cccc(C(F)(F)F)c4)cc3)cc(C3(C(=O)NC4CC4)CC3)nc21 [Example 1.12, 1-(3-Amino-1-methyl-4-{4-[3-(3-trifluoromethyl-phenyl)-ureido]-phenyl}-1H-pyrazolo[3,4-b]pyridin-6-yl)-cyclopropanecarboxylic acid cyclopropylamide] | ≤ 100 nM | ≤ 100 nM | 1000 to 10000 nM | >100 |
| CC(C)NC(=O)C1(c2cc(-c3ccc(NC(=O)Nc4cccc(C(F)(F)F)c4)cc3)c3c(N)nn(C)c3n2)CC1 [Example 1.6, 1-(3-Amino-1-methyl-4-{4-[3-(3-trifluoromethyl-phenyl)-ureido]-phenyl}-1H-pyrazolo[3,4-b]pyridin-6-yl)-cyclopropanecarboxylic acid isopropyl-amide] | ≤ 100 nM | ≤ 100 nM | 1000 to 10000 nM | >100 |
